# From patent US20240360177A1, “PEPTIDES WITH ANTIMICROBIAL ACTIVITIES” (priority 2021, published 2024)
# Read-outs that look alike come from different tables or passages of the source. Non-standard residues stand in square brackets, D forms with d. Residues, ends and D or L forms follow the SMILES beside them. Ahp = NCCCCCCC(=O)O; Ava = NCCCCC(=O)O
# Key:
# [1] = system: C. parapsilosis
# [2] = system: Epidermophyton floccosum ATCC 52066
# [3] = system: Scedosporium spp.; conditions: N = 2 strains; 72 hrs
# [4] = system: C. tropicalis
# [5] = system: Microsporum gypseum ATCC 14683
# [6] = system: C. krusei
# [7] = system: Trichophyton rubrum ATCC MYA-4438
# [8] = system: C. auris
# [9] = system: C. neoformans
# [10] = system: C. albicans
# [11] = system: Fusarium spp.
# [12] = system: C. gattii
# [13] = system: human red blood cells; format: cell-based; conditions: PBS, 37° C., 1 hr
# Description: Hemolysis is a liability for many other cationic peptides which prevented their utility to treat systemic infections. The hemolytic potential of the peptides was tested using red blood cells collected from fresh human blood after centrifugation at room temperature and washed in phosphate buffered saline (pH 7.4) three times and then incubated in phosphate buffered saline (PBS) at 37° C. for 1 hr with the peptides at concentrations of 3-300 μg/mL. Triton-X100 was used as the positive control while the vehicle (PBS) was used as the negative control. Amphotericin B and melittin, both known to be hemolytic were used as reference compounds. Following incubation, the mixture was centrifuged at room temperature, and the supernatant was separated and analyzed for light absorbance at a single wavelength of 410 nm. The background absorbance reading from the negative control was subtracted from all samples. The Triton-X-100 sample was used to represent 100% lysis. All test compound and positive control samples were normalized to this value to determine the percent lysis caused by the test compounds and the positive controls at each concentration.
# [14] = system: HepG2 cells
# [15] = system: C. glabrata
# [16] = system: C. dubliniensis; conditions: ATCC MYA-578; 24 hrs
# [17] = system: C. tropicalis; test: microbe, parasite or virus in culture; conditions: Candida tropicalis, ATCC90874, 24 h, read-out: MIC C. tropicalis
# [18] = system: C. glabrata; test: microbe, parasite or virus in culture; conditions: Nakaseomyces glabratus, ATCC90030, 24 h, read-out: MIC C. glabrata
# [19] = system: C. krusei; test: microbe, parasite or virus in culture; conditions: Pichia kudriavzevii, 24 h, read-out: MIC C. krusei
# [20] = system: C. albicans; test: microbe, parasite or virus in culture; conditions: Candida albicans, ATCC90028, 24 h, read-out: MIC C. albicans
# [21] = system: C. neoformans; test: microbe, parasite or virus in culture; conditions: Cryptococcus neoformans, ATCC90112, 72 h, read-out: MIC C. neoformans
# [22] = system: C. dubliniensis; test: microbe, parasite or virus in culture; conditions: Candida dubliniensis, 24 h, read-out: MIC C. dubliniensis
# [23] = system: C. parapsilosis; test: microbe, parasite or virus in culture; conditions: Lodderomyces parapsilosis, ATCC22019, 24 h, read-out: MIC C. parapsilosis
# [24] = system: C. auris; test: microbe, parasite or virus in culture; conditions: Candidozyma auris, 24 h, read-out: MIC C. auris
# [25] = system: Epidermophyton floccosum ATCC 52066; test: microbe, parasite or virus in culture; conditions: ATCC52066, read-out: MIC Epidermophyton floccosum
# [26] = system: Trichophyton rubrum ATCC MYA-4438; test: microbe, parasite or virus in culture; conditions: read-out: MIC Trichophyton rubrum
# [27] = system: Microsporum gypseum ATCC 14683; test: microbe, parasite or virus in culture; conditions: Nannizzia gypsea, ATCC14683, read-out: MIC Microsporum gypseum
# [28] = system: C. gattii; test: microbe, parasite or virus in culture; conditions: Cryptococcus gattii, 72 h, read-out: MIC C. gattii
# [29] = system: Staphylococcus aureus ATCC 29213; format: cell-based
# [30] = system: Pseudomonas aeruginosa ATCC 27853; format: cell-based
# [31] = system: Enterococcus faecium ATCC 700221; conditions: CAMHB
# [32] = system: Salmonella senftenberg CDC 127; format: cell-based
# [33] = system: Mycobacterium smegmatis ATCC 700084; format: cell-based; conditions: ATCC 700084, 48 h
# [34] = system: Escherichia coli ATCC 25922; format: cell-based
# [35] = system: Shigella sonnei MMX 10772; test: Antibacterial broth microdilution MIC, Shigella sonnei; format: cell-based; conditions: CAMHB
# [36] = system: Klebsiella pneumoniae ATCC 13883; format: cell-based
# [37] = system: HepG2 cells; test: Cytotoxicity in HepG2 cells, intracellular ATP assay; conditions: Homo sapiens, HepG2, read-out: EC50 in HepG2 ATP assay, internal control, range across studies
smiles,measurement,setting,value
"C[C@@H]1[C@H](O)[C@@H](C)/C=C/C=C/C=C/C=C/C=C/C=C/C=C/[C@H](O[C@@H]2O[C@H](C)[C@@H](O)[C@H](N)[C@@H]2O)C[C@@H]2O[C@](O)(C[C@@H](O)C[C@@H](O)[C@H](O)CC[C@@H](O)C[C@@H](O)CC(=O)O[C@H]1C)C[C@H](O)[C@H]2C(=O)O [AMB, amphotericin B, reference compound]",MIC C. parapsilosis,"[1]; ATCC 22019, 24 hrs",0.25 µg/mL
same,MIC Epidermophyton floccosum,[2]; 4-6 days,0.12 µg/mL
same,MIC Range Scedosporium spp.,[3],1 to 2 µg/mL
same,MIC C. tropicalis,"[4]; ATCC 90874, 24 hrs",0.5 µg/mL
same,MIC Microsporum gypseum,[5]; 4-6 days,0.5 µg/mL
same,MIC C. krusei,"[6]; MMX 7135, 24 hrs",0.5 µg/mL
same,MIC Trichophyton rubrum,[7]; 4-6 days,≤0.06 µg/mL
same,MIC C. auris,"[8]; CDC 386, 24 hrs",1 µg/mL
same,MIC C. neoformans,"[9]; ATCC 90112, 72 hrs",0.25 µg/mL
same,MIC C. albicans,"[10]; ATCC 90028 or 90029, 24 hrs",0.5 µg/mL
same,MIC Range Fusarium spp.,"[11]; N = 3 strains, 48 hrs",1 µg/mL
same,MIC C. gattii,"[12]; ATCC MYA-4093, 72 hrs",0.5 µg/mL
same,EC50 hemolysis (50% lysis),[13],6.95 µg/mL
same,"EC50 cytotoxicity in HepG2, positive controls across studies",[14],5.79 to 14.13 µg/mL
same,MIC C. glabrata,"[15]; ATCC 90030, 24 hrs",0.5 µg/mL
same,MIC C. dubliniensis,[16],0.25 µg/mL
"OC(Cn1cncn1)(Cn1cncn1)c1ccc(F)cc1F [FLC, fluconazole]",MIC,[17],0.25 µg/mL
same,MIC,[18],4 µg/mL
same,MIC,[19],8 µg/mL
same,MIC,[20],0.25 µg/mL
same,MIC,[21],4 µg/mL
same,MIC,[22],0.5 µg/mL
same,MIC Range Fusarium spp.,"[11]; N = 3 strains, 48 hrs",>32 µg/mL
same,MIC,[23],2 µg/mL
same,MIC,[24],> 32 µg/mL
same,MIC,[25],1 µg/mL
same,MIC,[26],0.5 µg/mL
same,MIC,[27],2 µg/mL
same,MIC,[28],8 µg/mL
"N=C(N)NCCC[C@@H](N)C(=O)N[C@@H](CCCNC(=N)N)C(=O)N[C@H](CCCNC(=N)N)C(=O)NCCCCCCC(=O)N[C@H](CCCNC(=N)N)C(=O)N[C@@H](CCCNC(=N)N)C(=O)N[C@H](CCCNC(=N)N)C(=O)NCCCCC(=O)N[C@H](CCCNC(=N)N)C(=O)N[C@@H](CCCNC(=N)N)C(=O)N[C@H](CCCNC(=N)N)C(=O)N[C@@H](CCCNC(=N)N)C(=O)NCCCCC(=O)N[C@H](CCCNC(=N)N)C(=O)N[C@@H](CCCNC(=N)N)C(=O)N[C@H](CCCNC(=N)N)C(=O)N[C@@H](CCCNC(=N)N)C(=O)N[C@@H](CS)C(=O)O [SEQ ID NO: 5, rRr-(Ahp)-rRr-(Ava)-rRrR-(Ava)-rRrR-Cys] (H-[dR]R[dR][Ahp][dR]R[dR][Ava][dR]R[dR]R[Ava][dR]R[dR]RC-OH)",MIC C. parapsilosis,[1]; 24 h,0.25 µg/mL
same,MIC Epidermophyton floccosum,[2],16 µg/mL
same,MIC Staphylococcus aureus,[29],8 µg/mL
same,MIC C. tropicalis,[4]; 24 h,0.25 µg/mL
same,MIC Microsporum gypseum,[5],64 µg/mL
same,MIC C. krusei,[6]; 24 h,1 µg/mL
same,MIC Pseudomonas aeruginosa,[30],32 µg/mL
same,MIC Trichophyton rubrum,[7],2 µg/mL
same,MIC C. auris,[8]; 24 h,0.25 µg/mL
same,MIC C. neoformans,[9]; 72 h,1 µg/mL
same,MIC Enterococcus faecium,[31],16 µg/mL
same,MIC C. albicans,[10]; 24 h,1 µg/mL
same,MIC Range Fusarium spp.,[11]; 48 h,0.5 to 4 µg/mL
same,MIC C. gattii,[12]; 72 h,0.5 µg/mL
same,MIC Salmonella senftenberg,[32],16 µg/mL
same,MIC Mycobacterium smegmatis,[33],2 µg/mL
same,MIC C. glabrata,[15]; 24 h,0.5 µg/mL
same,MIC Escherichia coli,[34],16 µg/mL
"N=C(N)NCCC[C@H](NC(=O)[C@@H](CCCNC(=N)N)NC(=O)[C@H](CCCNC(=N)N)NC(=O)[C@@H](CCCNC(=N)N)NC(=O)CCCCNC(=O)[C@H](CCCNC(=N)N)NC(=O)[C@@H](CCCNC(=N)N)NC(=O)[C@H](CCCNC(=N)N)NC(=O)[C@@H](CCCNC(=N)N)NC(=O)CCCCNC(=O)[C@@H](CCCNC(=N)N)NC(=O)[C@H](CCCNC(=N)N)NC(=O)[C@@H](CCCNC(=N)N)NC(=O)CCCCCCNC(=O)[C@@H](CCCNC(=N)N)NC(=O)[C@H](CCCNC(=N)N)NC(=O)[C@@H](CCCNC(=N)N)NC(=O)[C@@H](N)CS)C(=O)O [SEQ ID NO: 6, Cys-rRr-(Ahp)-rRr-(Ava)-rRrR-(Ava)-rRrR] (H-C[dR]R[dR][Ahp][dR]R[dR][Ava][dR]R[dR]R[Ava][dR]R[dR]R-OH)",MIC C. parapsilosis,[1]; 24 h,2 µg/mL
same,MIC Staphylococcus aureus,[29],8 µg/mL
same,MIC C. tropicalis,[4]; 24 h,1 µg/mL
same,MIC Shigella sonnei,[35],16 µg/mL
same,MIC C. krusei,[6]; 24 h,8 µg/mL
same,MIC Pseudomonas aeruginosa,[30],16 µg/mL
same,MIC C. auris,[8]; 24 h,4 µg/mL
same,MIC Klebsiella pneumoniae,[36],16 µg/mL
same,MIC Enterococcus faecium,[31],16 µg/mL
same,MIC C. albicans,[10]; 24 h,8 µg/mL
same,MIC Range Fusarium spp.,[11]; 48 h,0.25 to 0.5 µg/mL
same,MIC C. gattii,[12]; 72 h,1 µg/mL
same,MIC Salmonella senftenberg,[32],16 µg/mL
same,MIC Mycobacterium smegmatis,[33],1 µg/mL
same,MIC C. glabrata,[15]; 24 h,0.5 µg/mL
same,MIC Escherichia coli,[34],16 µg/mL
"C=C(C)[C@H]1Cc2c(ccc3c2O[C@@H]2COc4cc(OC)c(OC)cc4[C@@H]2C3=O)O1 [rotenone, reference compound]",EC50,[37],129 to 594 nM
